This is an account of results in patent publication US9145415B2, “Nitrogen-containing heterocyclic compound or salt thereof” (FUJIFILM Corporation, priority 2012, dated 2015).

Assay [1] has as its target T1, human FLT3 protein (FLT3 (WT)) (Homo sapiens, UniProt P36888).
T1 construct: human FLT3 protein (intracellular region, 564 to 993 aa); GST; purchased Carna Biosciences; host or cells: baculovirus expression system
T1 sequence (P36888 564-993): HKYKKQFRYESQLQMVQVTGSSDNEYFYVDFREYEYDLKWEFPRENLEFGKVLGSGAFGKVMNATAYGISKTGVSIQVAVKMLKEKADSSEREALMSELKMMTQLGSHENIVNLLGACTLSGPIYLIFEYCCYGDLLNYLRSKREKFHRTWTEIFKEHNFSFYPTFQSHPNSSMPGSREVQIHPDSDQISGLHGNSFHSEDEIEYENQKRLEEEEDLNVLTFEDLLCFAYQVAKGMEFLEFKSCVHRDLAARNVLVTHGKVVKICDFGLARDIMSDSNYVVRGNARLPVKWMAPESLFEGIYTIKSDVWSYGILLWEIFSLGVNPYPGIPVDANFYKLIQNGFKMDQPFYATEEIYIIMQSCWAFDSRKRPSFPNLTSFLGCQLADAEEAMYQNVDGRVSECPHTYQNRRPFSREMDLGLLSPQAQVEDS
Put plainly: FLT3 inhibition test (FLT3 enzyme inhibition, time-resolved fluorescence of substrate peptide phosphorylation). Format: biochemical. Particulars: read-out: FLT3 (WT) enzyme inhibition activity. An outline of the steps: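 Substrate peptide phosphorylation detected by time-resolved fluorescence after a 30 min kinase reaction at 25° C with 50 μM ATP (final). Beforehand, compound and FLT3 (WT, 1.2 μg) stood 15 min at 25° C in HEPES buffer pH 7.5 containing MgCl2, NaCl, BSA and DTT.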

A further assay has as its system MV4-11 cells. Put plainly: Leukemia cell proliferation inhibition test (ATPlite), MV4-11. It counts as cell-based. Conditions: read-out: MV4-11 cell proliferation inhibition effect. The procedure, abridged: (§1)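 Proliferation inhibition is quantified from total cellular ATP, measured by luciferase luminescence, after cells grow with compound for 72 hours. The GI50 is the concentration giving half the signal of the 0.1% DMSO control, fitted to a sigmoid curve from duplicate points.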

For another assay, the system named is Molm-13 cells. Put plainly: Leukemia cell proliferation inhibition test (ATPlite), Molm-13. It counts as cell-based. Particulars: read-out: MOLM13 cell proliferation inhibition effect. The procedure, abridged:
as §1
(In ATP-based viability assays light output follows the ATP content of the culture.)

Setting [2] is: Homo sapiens, MV4-11, MV4-11 cell.
Setting [3] is: Homo sapiens, MOLM-13, MOLM13 cell.
[4] abbreviates: GST-fused human FLT3 (564 to 993 aa), ATP 50 μM.
[5] abbreviates: Homo sapiens, MV4-11, 72 h, MV4-11, 72 hours culture, ATPlite, GI50 per method.
The mark [6] stands for this setting: Homo sapiens, MOLM-13, 72 h, Molm-13, 72 hours culture, ATPlite, GI50 per method.

The structures appear in SMILES notation. Read-outs that look alike come from different tables or passages of the source.

Turning to `CNc1ncc(C#C[C@@H]2CCC[C@H](NC(=O)[C@H](C)N(C)C(=O)/C=C/CN(C)C)C2)c(NCc2ccccc2)n1` [Compound 21-39], the IC50 (in assay [1] (FLT3 (WT)); in the assay with MV4-11 cells (setting [2]); in the assay with Molm-13 cells (setting [3])) was < 10 nM each time.

As to `C=CC(=O)NCC(=O)Nc1cccc(NC(=O)c2cnc(Nc3ccc(C(N)=O)cc3)nc2NCCC)c1` [Compound 3-8], the IC50 is < 10 nM in assay [1] (setting [4]), 10 to 100 nM with MV4-11 cells (setting [5]) and 10 to 100 nM with Molm-13 cells (setting [6]).

Regarding `CCCNc1nc(Nc2ccc(C(N)=O)cc2)ncc1C#CCCCNC(=O)[C@H](C)N(C)C(=O)/C=C/CN(C)C` [Compound 7-4, (S,E)-4-((5-(5-(2-(4-(Dimethylamino)-N-methyl-2-butenamido)propaneamido)-1-pentyn-1-yl)-4-(propylamino)pyrimidin-2-yl)amino)benzamide], the IC50 (in assay [1] (setting [4]); in the assay on MV4-11 cells (setting [5]); with Molm-13 cells (setting [6])) was < 10 nM in each case.

For the compound `CCCNc1nc(Nc2ccc(C#N)cc2)ncc1C#CCCCNC(=O)[C@H]1CCCN1C(=O)/C=C/CN(C)C` [Compound 7-36], the IC50 in assay [1] (setting [4]) is < 10 nM; in the assay on MV4-11 cells (setting [5]) it was < 10 nM; in the assay on Molm-13 cells (setting [6]), 10 to 100 nM.

For `CCCNc1nc(Nc2ccnc(F)c2)ncc1C#CCCCNC(=O)[C@H](C)N(C)C(=O)/C=C/CN(C)C` [Compound 9-13, (S,E)-4-(Dimethylamino)-N-(1-((5-(2-((2-fluoropyridin-4-yl)amino)-4-(propylamino)pyrimidin-5-yl)-4-pentyn-1-yl)amino)-1-oxopropan-2-yl)-N-methyl-2-butenamide], the IC50 (in assay [1] (setting [4]); in the assay on MV4-11 cells (setting [5]); in the assay on Molm-13 cells (setting [6])) was < 10 nM throughout.

Regarding `CN(C)C/C=C/C(=O)N1CCC[C@H]1C(=O)N[C@H]1C[C@@H](C#Cc2cnc(Nc3ccc(C#N)cc3)nc2NC2CC2)C1` [Compound 15-12], the IC50 (in assay [1] (setting [4]); with MV4-11 cells (setting [5]); with Molm-13 cells (setting [6])) was < 10 nM in each case.

`CCCNc1nc(Nc2cccc(F)c2)ncc1C#CCCCNC(=O)[C@@H]1CCCN1C(=O)/C=C/CN(C)C` [Compound 8-15]: the IC50 in assay [1] (setting [4]) is 10 to 100 nM; with MV4-11 cells (MV4-11, 72 hours culture, ATPlite, GI50 per method), 100 to 1000 nM; in the assay on Molm-13 cells (Molm-13, 72 hours culture, ATPlite, GI50 per method) it was 100 to 1000 nM.

For `CCCOc1nc(Nc2ccc(C#N)cc2)ncc1C#C[C@@H]1CCC[C@H](NC(=O)[C@H](C)N(C)C(=O)/C=C/CN(C)C)C1` [Compound 21-13], the IC50 (in assay [1] (setting [4]); in the assay with MV4-11 cells (setting [5]); in the assay on Molm-13 cells (setting [6])) was < 10 nM each time.

As for `CCCNc1nc(Nc2ccc3c(OC)n[nH]c3c2)ncc1C#CCCCNC(=O)[C@H](C)N(C)C(=O)/C=C/CN(C)C` [Compound 22-65], the IC50 (in assay [1] (FLT3 (WT)); in the assay on MV4-11 cells (setting [2]); in the assay with Molm-13 cells (setting [3])) was < 10 nM throughout.
